Laboratory results from patent US20220243210A1, “ANGIOTENSIN II TYPE 1 RECEPTOR TARGETED OLIGONUCLEOTIDES AND USES THEREOF” (Ionis Pharmaceuticals, Inc., priority 2019, published 2022).

What was measured:
human MALAT1 RNA [1] = assay: MALAT1 RNA reduction in HEK-AGTR1 FAP cells, free uptake, 24 hours; format: cell-based; settings: for MALAT (% control): relative to untreated control cells; for IC50: MALAT1 RNA, four parameter fit
Description: (§1) At the end of the treatment period, total RNA was isolated from the cells and MALAT1 RNA levels were measured by quantitative real-time PC&. […] MALAT1 RNA levels were normalized according to total RNA content, as measured by RIBOGREEN®. Reduction of MALAT1 RNA is presented Table 3 below as percent MALAT1 RNA amount relative to untreated control (UTC) cells. The half maximal inhibitory concentration (IC50) of each modified oligonucleotide was calculated using a non-linear fit [inhibitor] vs. response—variable slope (four parameters) formula in GraphPad Prism 7.01.

human MALAT1 RNA [2] = assay: MALAT1 RNA reduction in HEK-AGTR1 FAP cells, free uptake, 48 hours; format: cell-based; settings: for MALAT (% control) / IC50: 48 hours; for MALAT (% control): relative to untreated control cells; for IC50: MALAT1 RNA, three parameter fit
Description: as §1, with “PCR.” for “PC&.”, “Reduction of MALAT1 RNA is presented Table 3 below as percent MALAT1 RNA amount relative to untreated control (UTC) cells.” left out, “response-variable” for “response—variable”, “(three” for “(four”

mouse MALAT RNA = assay: MALAT RNA reduction in vivo, C57BL6/J mice, multiple dose; settings: for ED50: IV day 0, 4, 8
Description: Compound Nos. 556089, 1229761, and 1229762 are described in Table 1 above. Compound Nos. 556089, 1229761, and 1229762 were tested in C57BL6/J mice. The mice were divided into groups of 4 mice each. […] The mice were then sacrificed on day 12. Heart, adipose, adrenal, kidney, and liver tissue was then collected and homogenized and RNA analysis was performed. A group of 4 mice received PBS as a negative control.
RNA was extracted from heart, adipose, adrenal, kidney, and liver tissue for real-time PCR analysis of measurement of RNA expression of MALAT using primer probe set mMALAT1 #2 (forward sequence […] (SEQ ID NO: 5); reverse sequence […] (SEQ ID NO: 6); probe sequence […] (SEQ ID NO: 7)). Results are presented as percent change of RNA, relative to PBS control, normalized to mouse GAPDH.

HEK-APLNR FAP cells = assay: IP1 accumulation negative control in HEK-APLNR FAP cells (do not express AGTR1); format: cell-based, human; settings: 24 hours
Description: Activated AGTR1 couples to the Gαq subunit of heterotrimeric G proteins, which activates the phospholipase C (PLC) and subsequently inositol 1,4,5-trisphosphate (IP3) signaling cascade. AGTR1 signaling was measured using an IP-One Gq kit (cisbio #62IPAPEB). The kit detects the accumulation of inositol monophosphate (IP1), a stable downstream metabolite of IP3 induced by activation of a phospholipase C (PLC) cascade.
As a negative control, Compound Nos. 556089 and 1229761 were also tested in HEK293 cells expressing FAP tagged human Apelin receptor (HEK-APLNR FAP cells from Spectragenetics). […] HEK-APLNR FAP cells were cultured with Compound Nos. 556089 and 1229761, described herein above, at the concentrations detailed in Table 2 for 24 hours.

[3] = Adipose, 0.4 μmol/kg IV day 0, 4, 8, sacrifice day 12, relative to PBS
[4] = Adipose, 1.2 μmol/kg IV day 0, 4, 8, sacrifice day 12, relative to PBS
[5] = Adipose, 3.6 μmol/kg IV day 0, 4, 8, sacrifice day 12, relative to PBS
[6] = Adrenal, 0.4 μmol/kg IV day 0, 4, 8, sacrifice day 12, relative to PBS
[7] = Adrenal, 1.2 μmol/kg IV day 0, 4, 8, sacrifice day 12, relative to PBS
[8] = Adrenal, 3.6 μmol/kg IV day 0, 4, 8, sacrifice day 12, relative to PBS
[9] = Heart, 0.4 μmol/kg IV day 0, 4, 8, sacrifice day 12, relative to PBS
[10] = Heart, 1.2 μmol/kg IV day 0, 4, 8, sacrifice day 12, relative to PBS
[11] = Heart, 3.6 μmol/kg IV day 0, 4, 8, sacrifice day 12, relative to PBS
[12] = Kidney, 0.4 μmol/kg IV day 0, 4, 8, sacrifice day 12, relative to PBS
[13] = Kidney, 1.2 μmol/kg IV day 0, 4, 8, sacrifice day 12, relative to PBS
[14] = Kidney, 3.6 μmol/kg IV day 0, 4, 8, sacrifice day 12, relative to PBS
[15] = Liver, 0.4 μmol/kg IV day 0, 4, 8, sacrifice day 12, relative to PBS
[16] = Liver, 1.2 μmol/kg IV day 0, 4, 8, sacrifice day 12, relative to PBS
[17] = Liver, 3.6 μmol/kg IV day 0, 4, 8, sacrifice day 12, relative to PBS

Compound No. 1229761: Angiotensin II peptide [N6-(2-azidoacetyl)-K]DRVYIHPF conjugated via linker to 5′-end of MALAT1 modified oligonucleotide TCAGCATTCTAATAGCAGC
MALAT (% control) (human MALAT1 RNA [1]; 12 nM, 24 hours): 126 % control
MALAT (% control) (human MALAT1 RNA [1]; 111 nM, 24 hours): 76 % control
MALAT (% control) (human MALAT1 RNA [1]; 333 nM, 24 hours): 63 % control
MALAT (% control) (human MALAT1 RNA [1]; 1000 nM, 24 hours): 67 % control
MALAT (% control) (human MALAT1 RNA [1]; 3000 nM, 24 hours): 36 % control
MALAT (% control) (human MALAT1 RNA [1]; 9000 nM, 24 hours): 33 % control
IC50 (human MALAT1 RNA [1]; 24 hours): 182 nM
reduction of target RNA in words (human MALAT1 RNA [1]; compared to parent unconjugated Compound No. 556089, 24 hours): significantly greater reduction of target RNA
MALAT (% control) (human MALAT1 RNA [2]; 2.7 nM): 94 % control
MALAT (% control) (human MALAT1 RNA [2]; 8.2 nM): 98 % control
MALAT (% control) (human MALAT1 RNA [2]; 24.7 nM): 92 % control
MALAT (% control) (human MALAT1 RNA [2]; 74.1 nM): 85 % control
MALAT (% control) (human MALAT1 RNA [2]; 222.2 nM): 53 % control
MALAT (% control) (human MALAT1 RNA [2]; 666.7 nM): 26 % control
MALAT (% control) (human MALAT1 RNA [2]; 2000 nM): 18 % control
MALAT (% control) (human MALAT1 RNA [2]; 6000 nM): 16 % control
MALAT (% control) (human MALAT1 RNA [2]; .10 nM): 85 % control
MALAT (% control) (human MALAT1 RNA [2]; .3 nM): 99 % control
MALAT (% control) (human MALAT1 RNA [2]; .9 nM): 91 % control
IC50 (human MALAT1 RNA [2]): 290 nM
reduction of target RNA in words (human MALAT1 RNA [2]; compared to parent unconjugated Compound No. 556089, 48 hours): significantly greater reduction of target RNA
MALAT-1 RNA (% control) (mouse MALAT RNA; [3]): 66.2 % control
MALAT-1 RNA (% control) (mouse MALAT RNA; [4]): 33.0 % control
MALAT-1 RNA (% control) (mouse MALAT RNA; [5]): 15.5 % control
ED50 (mouse MALAT RNA; Adipose): 0.1 µmol/kg
MALAT-1 RNA (% control) (mouse MALAT RNA; [6]): 90.3 % control
MALAT-1 RNA (% control) (mouse MALAT RNA; [7]): 59.7 % control
MALAT-1 RNA (% control) (mouse MALAT RNA; [8]): 41.5 % control
ED50 (mouse MALAT RNA; Adrenal): 1.091 µmol/kg
MALAT-1 RNA (% control) (mouse MALAT RNA; [9]): 82.3 % control
MALAT-1 RNA (% control) (mouse MALAT RNA; [10]): 68.7 % control
MALAT-1 RNA (% control) (mouse MALAT RNA; [11]): 31.7 % control
ED50 (mouse MALAT RNA; Heart): 2.686 µmol/kg
MALAT-1 RNA (% control) (mouse MALAT RNA; [12]): 53.8 % control
MALAT-1 RNA (% control) (mouse MALAT RNA; [13]): 39.6 % control
MALAT-1 RNA (% control) (mouse MALAT RNA; [14]): 21.4 % control
ED50 (mouse MALAT RNA; Kidney): 1.88 µmol/kg
MALAT-1 RNA (% control) (mouse MALAT RNA; [15]): 34.7 % control
MALAT-1 RNA (% control) (mouse MALAT RNA; [16]): 12 % control
MALAT-1 RNA (% control) (mouse MALAT RNA; [17]): 5.7 % control
ED50 (mouse MALAT RNA; Liver): 0.063 µmol/kg
IP1 accumulation (HEK-APLNR FAP cells; 0.0256 nM): 590 nM
IP1 accumulation (HEK-APLNR FAP cells; 0.128 nM): 477 nM
IP1 accumulation (HEK-APLNR FAP cells; 0.64 nM): 564 nM
IP1 accumulation (HEK-APLNR FAP cells; 3.2 nM): 510 nM
IP1 accumulation (HEK-APLNR FAP cells; 16 nM): 505 nM
IP1 accumulation (HEK-APLNR FAP cells; 80 nM): 492 nM
IP1 accumulation (HEK-APLNR FAP cells; 400 nM): 425 nM
IP1 accumulation (HEK-APLNR FAP cells; 2000 nM): 472 nM

Compound No. 1229762: Extended Angiotensin II peptide [N6-(2-azidoacetyl)-K]PPPAGSSPGDRVYIHPF conjugated via linker to 5′-end of MALAT1 modified oligonucleotide TCAGCATTCTAATAGCAGC
MALAT (% control) (human MALAT1 RNA [1]; 12 nM, 24 hours): 105 % control
MALAT (% control) (human MALAT1 RNA [1]; 37 nM, 24 hours): 90 % control
MALAT (% control) (human MALAT1 RNA [1]; 111 nM, 24 hours): 59 % control
MALAT (% control) (human MALAT1 RNA [1]; 333 nM, 24 hours): 36 % control
MALAT (% control) (human MALAT1 RNA [1]; 1000 nM, 24 hours): 41 % control
MALAT (% control) (human MALAT1 RNA [1]; 3000 nM, 24 hours): 22 % control
MALAT (% control) (human MALAT1 RNA [1]; 9000 nM, 24 hours): 24 % control
IC50 (human MALAT1 RNA [1]; 24 hours): 100 nM
improvement in target knockdown in words (human MALAT1 RNA [1]; among compounds tested, 24 hours): greatest improvement in target knockdown
MALAT (% control) (human MALAT1 RNA [2]; 2.7 nM): 100 % control
MALAT (% control) (human MALAT1 RNA [2]; 8.2 nM): 80 % control
MALAT (% control) (human MALAT1 RNA [2]; 24.7 nM): 69 % control
MALAT (% control) (human MALAT1 RNA [2]; 74.1 nM): 66 % control
MALAT (% control) (human MALAT1 RNA [2]; 222.2 nM): 42 % control
MALAT (% control) (human MALAT1 RNA [2]; 666.7 nM): 16 % control
MALAT (% control) (human MALAT1 RNA [2]; 2000 nM): 12 % control
MALAT (% control) (human MALAT1 RNA [2]; 6000 nM): 9 % control
MALAT (% control) (human MALAT1 RNA [2]; .10 nM): 103 % control
MALAT (% control) (human MALAT1 RNA [2]; .3 nM): 106 % control
MALAT (% control) (human MALAT1 RNA [2]; .9 nM): 101 % control
IC50 (human MALAT1 RNA [2]): 125 nM
MALAT-1 RNA (% control) (mouse MALAT RNA; [3]): 58.3 % control
MALAT-1 RNA (% control) (mouse MALAT RNA; [4]): 40.1 % control
MALAT-1 RNA (% control) (mouse MALAT RNA; [5]): 20.5 % control
ED50 (mouse MALAT RNA; Adipose): 1.385 µmol/kg
MALAT-1 RNA (% control) (mouse MALAT RNA; [6]): 87.8 % control
MALAT-1 RNA (% control) (mouse MALAT RNA; [7]): 66.5 % control
MALAT-1 RNA (% control) (mouse MALAT RNA; [8]): 45.2 % control
ED50 (mouse MALAT RNA; Adrenal): 1.2 µmol/kg
MALAT-1 RNA (% control) (mouse MALAT RNA; [9]): 86.2 % control
MALAT-1 RNA (% control) (mouse MALAT RNA; [10]): 73.4 % control
MALAT-1 RNA (% control) (mouse MALAT RNA; [11]): 40 % control
ED50 (mouse MALAT RNA; Heart): 3.14 µmol/kg
MALAT-1 RNA (% control) (mouse MALAT RNA; [12]): 50.6 % control
MALAT-1 RNA (% control) (mouse MALAT RNA; [13]): 43.8 % control
MALAT-1 RNA (% control) (mouse MALAT RNA; [14]): 22.4 % control
ED50 (mouse MALAT RNA; Kidney): 3.084 µmol/kg
MALAT-1 RNA (% control) (mouse MALAT RNA; [15]): 40.5 % control
MALAT-1 RNA (% control) (mouse MALAT RNA; [16]): 15.1 % control
MALAT-1 RNA (% control) (mouse MALAT RNA; [17]): 5.7 % control
ED50 (mouse MALAT RNA; Liver): 0.085 µmol/kg
IP1 accumulation (HEK-APLNR FAP cells; 0.0256 nM): 723 nM
IP1 accumulation (HEK-APLNR FAP cells; 0.128 nM): 634 nM
IP1 accumulation (HEK-APLNR FAP cells; 0.64 nM): 679 nM
IP1 accumulation (HEK-APLNR FAP cells; 3.2 nM): 596 nM
IP1 accumulation (HEK-APLNR FAP cells; 16 nM): 526 nM
IP1 accumulation (HEK-APLNR FAP cells; 80 nM): 517 nM
IP1 accumulation (HEK-APLNR FAP cells; 400 nM): 609 nM
IP1 accumulation (HEK-APLNR FAP cells; 2000 nM): 576 nM
